PMC3005942, “Cloning, Expression, and Purification of a Nitric Oxide Synthase-Like Protein from Bacillus cereus” (Biochemistry Research International, 2009)

How the values were obtained:
bcNOS [1] = molecular target: T1, bcNOS (Bacillus cereus, UniProt Q814I7); test: H2O2-dependent NOHA oxidation to nitrite, plate reader; type: biochemical; settings: H2O2, 25 °C, activator
T1 construct: gene BC_5444; full length, 356 residues, 43 kDa, homodimer; N-terminal His6 tag (pET28a, NdeI/EcoRI), E. coli BL21(DE3) pLysS; heme protein
T1 sequence (Q814I7 1-356): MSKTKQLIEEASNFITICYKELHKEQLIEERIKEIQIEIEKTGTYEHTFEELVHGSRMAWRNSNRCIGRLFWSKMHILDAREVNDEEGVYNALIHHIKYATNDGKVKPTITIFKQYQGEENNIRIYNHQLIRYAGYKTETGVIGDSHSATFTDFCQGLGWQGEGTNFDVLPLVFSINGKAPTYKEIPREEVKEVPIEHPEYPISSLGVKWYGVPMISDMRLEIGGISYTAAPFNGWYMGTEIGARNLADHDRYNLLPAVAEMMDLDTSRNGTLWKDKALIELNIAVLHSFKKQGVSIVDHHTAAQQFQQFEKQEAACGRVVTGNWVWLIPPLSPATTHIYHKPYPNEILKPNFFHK

bcNOS [2] = molecular target: T1, bcNOS; test: difference spectroscopy, double-reciprocal analysis; type: binding; settings: distal sixth ligand of ferric heme

Row | Compound | H2O2-dependent NOHA oxidation to nitrite, plate reader (bcNOS [1]) | Kd (bcNOS [2])
1 | Nc1nc2c(c(=O)[nH]1)N[C@@H](CNc1ccc(C(=O)N[C@@H](CCC(=O)O)C(=O)O)cc1)CN2 [THF] | in the presence of NOHA and THF the activity doubled | 
2 | c1c[nH]cn1 [imidazole] |  | 181 ± 13 µM
